In patent publication US4399126A, “Modulators of the complement system” (American Cyanamid Company, priority 1982, dated 1983):
Where two headings read alike, the source gives them in different places.

Tests used:
[1] = system: complement system; settings: Br. J. Exp. Pathol. 33: 327 (1952); cited from earlier work
[2] = system: hereditary angioneurotic edema; settings: literature reports; cited from earlier work
[3] = system: late components of human complement (C3-C9); test: Test Code 035 (C3-C9 inhibitor), lysis of EAC 142; assay type: biochemical; settings: serial twofold dilution assay; higher well number indicates higher activity
[4] = system: complement activity of sera; test: Guinea Pig Intraperitoneal Test (GPIP); assay type: in vivo; settings: Cavia porcellus, ip, 200 mg/kg i.p., capillary complement assay
Procedure: Percent inhibition is calculated by comparison with simultaneous controls.

[5] = target: T1, activated human C1 (Homo sapiens, UniProt P09871); test: Test Code 026 (C1 inhibitor); assay type: biochemical; settings: serial twofold dilution assay; higher well number indicates higher activity
T1 sequence (P09871 16-437 limits assumed): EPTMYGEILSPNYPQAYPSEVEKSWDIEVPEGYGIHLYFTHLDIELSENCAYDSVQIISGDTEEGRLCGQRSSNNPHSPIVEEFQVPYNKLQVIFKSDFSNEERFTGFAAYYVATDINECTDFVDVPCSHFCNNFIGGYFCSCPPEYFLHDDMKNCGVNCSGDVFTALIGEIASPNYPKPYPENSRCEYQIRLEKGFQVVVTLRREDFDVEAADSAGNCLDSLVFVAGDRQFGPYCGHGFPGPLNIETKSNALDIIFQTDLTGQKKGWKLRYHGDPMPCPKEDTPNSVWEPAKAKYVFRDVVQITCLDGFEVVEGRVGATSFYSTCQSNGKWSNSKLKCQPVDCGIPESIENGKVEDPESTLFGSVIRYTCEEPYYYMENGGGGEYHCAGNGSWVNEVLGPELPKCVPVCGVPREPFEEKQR
T1 sequence (P09871 438-688 limits assumed): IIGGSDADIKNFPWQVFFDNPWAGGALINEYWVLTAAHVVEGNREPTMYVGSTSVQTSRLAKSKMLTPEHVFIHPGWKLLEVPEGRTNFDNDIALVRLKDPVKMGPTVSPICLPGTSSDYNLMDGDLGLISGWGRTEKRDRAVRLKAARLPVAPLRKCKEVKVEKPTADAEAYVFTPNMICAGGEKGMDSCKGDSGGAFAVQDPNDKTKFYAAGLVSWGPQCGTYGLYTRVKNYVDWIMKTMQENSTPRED

[6] = system: human serum; settings: in vitro and in vivo, judged by reduction in total hemolytic complement activity; cited from earlier work
[7] = blood 2 hours after injection, read-out: in vivo Activity Guinea Pig % Inhibition Intraperitoneal, 2 hours
[8] = blood 6 hours after injection, read-out: in vivo Activity Guinea Pig % Inhibition Intraperitoneal, 6 hours
[9] = blood 24 hours after injection, read-out: in vivo Activity Guinea Pig % Inhibition Intraperitoneal, 24 hours

Row | Molecule | in vitro Activity C-Late 035 Wells [3] [Wells] | inhibition at 200 mg/kg [4, 7] [%] | inhibition at 200 mg/kg [4, 8] [%] | inhibition at 200 mg/kg [4, 9] [%] | in vitro Activity Cl 026 Wells [5] [Wells] | further results
1 | Nc1ccc2cc(S(=O)(=O)[O-])cc(O)c2c1N=Nc1ccc(NC(=O)Nc2ccc(N=Nc3c(N)ccc4cc(S(=O)(=O)[O-])cc(O)c34)c(S(=O)(=O)[O-])c2)cc1S(=O)(=O)[O-].[Na+].[Na+].[Na+].[Na+] [chlorazol fast pink, 3,3'-ureylenebis-[6-(2-amino-8-hydroxy-6-sulfo-1-naphthylazo)benzenesulfonic acid], tetrasodium salt] | – | – | – | – | – | anticomplementary effect [1]: anticomplementary effect
2 | NCCCCCC(=O)O [epsilon-aminocaproic acid] | – | – | – | – | – | success in the treatment of hereditary angioneurotic edema [2]: used with success
3 | O=C(CCCCC(=O)Nc1ccc(S[C@@H]2O[C@H](COS(=O)(=O)O)[C@@H](O[C@H]3O[C@H](COS(=O)(=O)O)[C@@H](OS(=O)(=O)O)[C@H](OS(=O)(=O)O)[C@H]3OS(=O)(=O)O)[C@H](OS(=O)(=O)O)[C@H]2OS(=O)(=O)O)cc1)Nc1ccc(S[C@@H]2O[C@H](COS(=O)(=O)O)[C@@H](O[C@H]3O[C@H](COS(=O)(=O)O)[C@@H](OS(=O)(=O)O)[C@H](OS(=O)(=O)O)[C@H]3OS(=O)(=O)O)[C@H](OS(=O)(=O)O)[C@H]2OS(=O)(=O)O)cc1.[Na].[Na].[Na].[Na].[Na].[Na].[Na].[Na].[Na].[Na].[Na].[Na].[Na].[Na] [tetradecasodium N,N'-bis[4-[2,3,6-tri-O-sulfo-4-O-(2,3,4,6-tetra-O-sulfo-α-D-glucopyranosyl)-β-D-glucopyranosylthio]phenyl]hexanediamide] | 1.0 | 90 | 85 | 76 | 10.5 | –
4 | O=C(CCCC(=O)Nc1ccc(S[C@@H]2O[C@H](COS(=O)(=O)O)[C@@H](O[C@H]3O[C@H](COS(=O)(=O)O)[C@@H](OS(=O)(=O)O)[C@H](OS(=O)(=O)O)[C@H]3OS(=O)(=O)O)[C@H](OS(=O)(=O)O)[C@H]2OS(=O)(=O)O)cc1)Nc1ccc(S[C@@H]2O[C@H](COS(=O)(=O)O)[C@@H](O[C@H]3O[C@H](COS(=O)(=O)O)[C@@H](OS(=O)(=O)O)[C@H](OS(=O)(=O)O)[C@H]3OS(=O)(=O)O)[C@H](OS(=O)(=O)O)[C@H]2OS(=O)(=O)O)cc1.[Na].[Na].[Na].[Na].[Na].[Na].[Na].[Na].[Na].[Na].[Na].[Na].[Na].[Na] [tetradecasodium N,N'-bis[4-[2,3,6-tri-O-sulfo-4-O-(2,3,4,6-tetra-O-sulfo-α-D-glucopyranosyl)-β-D-glucopyranosylthio]phenyl]pentanediamide] | 1.5 | 90 | 88 | 44 | 9.9 | –
5 | O=C(CC(=O)Nc1ccc(S[C@@H]2O[C@H](COS(=O)(=O)O)[C@@H](O[C@H]3O[C@H](COS(=O)(=O)O)[C@@H](OS(=O)(=O)O)[C@H](OS(=O)(=O)O)[C@H]3OS(=O)(=O)O)[C@H](OS(=O)(=O)O)[C@H]2OS(=O)(=O)O)cc1)Nc1ccc(S[C@@H]2O[C@H](COS(=O)(=O)O)[C@@H](O[C@H]3O[C@H](COS(=O)(=O)O)[C@@H](OS(=O)(=O)O)[C@H](OS(=O)(=O)O)[C@H]3OS(=O)(=O)O)[C@H](OS(=O)(=O)O)[C@H]2OS(=O)(=O)O)cc1.[Na].[Na].[Na].[Na].[Na].[Na].[Na].[Na].[Na].[Na].[Na].[Na].[Na].[Na] [tetradecasodium N,N'-bis[4-[2,3,6-tri-O-sulfo-4-O-(2,3,4,6-tetra-O-sulfo-α-D-glucopyranosyl)-β-D-glucopyranosylthio]phenyl]propanediamide] | 1.6 | 90 | 90 | 47 | 9.9 | –
6 | NC[C@H]1CC[C@H](C(=O)O)CC1 [tranexamic acid] | – | – | – | – | – | success in the treatment of hereditary angioneurotic edema [2]: used with success
7 | heparin | – | – | – | – | – | anticomplementary effect [1]: anticomplementary effect
8 | pentosan-polysulfoester | – | – | – | – | – | anticomplementary activity on human serum [6]: anticomplementary activity
